Results: article PMC10905675, “INX-315, a Selective CDK2 Inhibitor, Induces Cell Cycle Arrest and Senescence in Solid Tumors” (Cancer Discovery, 2023)
pIC50: −log10 of the molar value. Like-named read-outs stand apart in the source and are kept apart here.

Key:
AMPK (A1/B2/G1) = molecular target: T1, AMPK (A1/B2/G1) (Homo sapiens, UniProt Q13131); assay: SelectScreen LanthaScreen Binding; conditions: INX-0315 at 100nM
T1 construct: purchased Thermo Fisher Scientific SelectScreen (plus Nanosyn / Reaction Biology for CDK/cyclin lines)
T1 sequence (Q13131 whole entry): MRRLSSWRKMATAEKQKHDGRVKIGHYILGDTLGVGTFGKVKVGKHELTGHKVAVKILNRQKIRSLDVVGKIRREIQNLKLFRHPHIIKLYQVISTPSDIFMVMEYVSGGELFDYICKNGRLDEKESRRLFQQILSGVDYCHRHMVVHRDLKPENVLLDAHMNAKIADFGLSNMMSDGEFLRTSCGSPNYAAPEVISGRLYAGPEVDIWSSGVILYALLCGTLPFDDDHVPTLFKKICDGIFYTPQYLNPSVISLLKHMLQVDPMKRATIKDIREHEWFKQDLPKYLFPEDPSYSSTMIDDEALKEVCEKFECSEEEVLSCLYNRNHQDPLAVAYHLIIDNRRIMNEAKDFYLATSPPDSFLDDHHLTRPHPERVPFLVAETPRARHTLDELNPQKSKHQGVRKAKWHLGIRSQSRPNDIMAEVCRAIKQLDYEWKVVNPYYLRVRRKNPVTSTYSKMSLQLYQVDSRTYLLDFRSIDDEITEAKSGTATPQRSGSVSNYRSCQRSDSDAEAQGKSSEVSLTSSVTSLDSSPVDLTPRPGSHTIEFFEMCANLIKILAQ
T1 sequence (O43741 whole entry partner): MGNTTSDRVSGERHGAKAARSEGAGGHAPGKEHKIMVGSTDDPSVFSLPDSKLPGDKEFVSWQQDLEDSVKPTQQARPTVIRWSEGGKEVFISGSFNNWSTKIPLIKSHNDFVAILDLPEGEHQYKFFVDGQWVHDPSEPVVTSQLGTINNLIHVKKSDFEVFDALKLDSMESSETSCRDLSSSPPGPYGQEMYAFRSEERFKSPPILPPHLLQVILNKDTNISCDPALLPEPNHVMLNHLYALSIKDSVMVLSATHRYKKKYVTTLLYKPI
T1 sequence (P54619 whole entry partner): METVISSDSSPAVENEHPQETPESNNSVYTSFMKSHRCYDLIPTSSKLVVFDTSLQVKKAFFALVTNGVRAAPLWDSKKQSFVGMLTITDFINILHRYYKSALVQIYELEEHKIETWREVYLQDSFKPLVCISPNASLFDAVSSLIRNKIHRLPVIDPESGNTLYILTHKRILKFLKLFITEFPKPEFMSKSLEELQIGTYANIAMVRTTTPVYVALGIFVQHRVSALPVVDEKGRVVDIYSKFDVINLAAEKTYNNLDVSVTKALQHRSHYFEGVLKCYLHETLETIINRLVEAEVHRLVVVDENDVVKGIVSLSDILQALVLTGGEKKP
Method in brief: (§1)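 Screening in two stages: one concentration of inhibitor (100 nmol/L; 1% DMSO), then a ten-point series from 1 µmol/L to 0.0495 nmol/L. Conditions were those fixed in advance by the provider.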

CDK11 (Inactive) = molecular target: T2, CDK11 (Inactive) (Homo sapiens, UniProt Q9BWU1); assay: SelectScreen LanthaScreen Binding; conditions: INX-0315 at 100nM
T2 construct: purchased Thermo Fisher Scientific SelectScreen (plus Nanosyn / Reaction Biology for CDK/cyclin lines)
T2 sequence (Q9BWU1 whole entry): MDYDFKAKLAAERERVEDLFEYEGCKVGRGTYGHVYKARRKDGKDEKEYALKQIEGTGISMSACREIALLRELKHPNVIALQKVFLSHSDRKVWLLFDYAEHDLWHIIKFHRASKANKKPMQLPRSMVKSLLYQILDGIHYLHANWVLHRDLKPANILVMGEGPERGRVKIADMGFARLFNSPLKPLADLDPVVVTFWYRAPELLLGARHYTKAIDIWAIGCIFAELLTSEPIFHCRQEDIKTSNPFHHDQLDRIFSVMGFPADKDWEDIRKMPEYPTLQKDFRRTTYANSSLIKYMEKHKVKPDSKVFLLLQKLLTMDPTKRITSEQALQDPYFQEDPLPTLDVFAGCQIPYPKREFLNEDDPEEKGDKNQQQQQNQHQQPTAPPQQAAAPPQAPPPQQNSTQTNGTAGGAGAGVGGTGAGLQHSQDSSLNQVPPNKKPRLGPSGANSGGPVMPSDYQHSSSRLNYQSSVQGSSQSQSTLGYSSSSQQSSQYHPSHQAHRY
Method in brief: as §1

DDR1 = molecular target: T3, DDR1 (Homo sapiens, UniProt Q08345); assay: SelectScreen LanthaScreen Binding; conditions: INX-0315 at 100nM
T3 construct: purchased Thermo Fisher Scientific SelectScreen (plus Nanosyn / Reaction Biology for CDK/cyclin lines)
Method in brief: as §1

DDR2 N456S = molecular target: T4, DDR2 N456S (Homo sapiens, UniProt Q16832, N456S); assay: SelectScreen LanthaScreen Binding; conditions: INX-0315 at 100nM
T4 construct: purchased Thermo Fisher Scientific SelectScreen (plus Nanosyn / Reaction Biology for CDK/cyclin lines)
Method in brief: as §1

DMPK = molecular target: T5, DMPK (Homo sapiens, UniProt Q09013); assay: SelectScreen LanthaScreen Binding; conditions: INX-0315 at 100nM
T5 construct: purchased Thermo Fisher Scientific SelectScreen (plus Nanosyn / Reaction Biology for CDK/cyclin lines)
Method in brief: as §1

[1] = molecular target: T6, EGFR (ErbB1) d747-749 A750P (Homo sapiens, UniProt P00533, A750P/DEL747-749); assay: SelectScreen LanthaScreen Binding; conditions: INX-0315 at 100nM
T6 construct: purchased Thermo Fisher Scientific SelectScreen (plus Nanosyn / Reaction Biology for CDK/cyclin lines)
T6 sequence (P00533 with tags, fused parts or gaps DEL747-749/A750P limits assumed): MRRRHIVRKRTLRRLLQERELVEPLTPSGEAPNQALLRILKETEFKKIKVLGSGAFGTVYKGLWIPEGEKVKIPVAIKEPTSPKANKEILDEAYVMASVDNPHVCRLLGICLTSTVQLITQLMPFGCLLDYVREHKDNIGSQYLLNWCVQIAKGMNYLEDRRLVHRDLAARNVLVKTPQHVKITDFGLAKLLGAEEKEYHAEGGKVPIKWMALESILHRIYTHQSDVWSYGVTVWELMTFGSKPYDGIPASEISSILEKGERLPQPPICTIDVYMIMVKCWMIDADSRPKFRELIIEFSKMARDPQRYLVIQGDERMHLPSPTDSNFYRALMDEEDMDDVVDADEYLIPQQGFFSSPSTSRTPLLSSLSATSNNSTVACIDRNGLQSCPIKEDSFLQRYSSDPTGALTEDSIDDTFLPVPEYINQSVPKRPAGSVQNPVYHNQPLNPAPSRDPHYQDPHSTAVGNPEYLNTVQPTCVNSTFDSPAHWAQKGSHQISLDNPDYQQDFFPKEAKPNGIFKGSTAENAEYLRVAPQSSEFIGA
Method in brief: as §1

EIF2AK2 (PKR) = molecular target: T7, EIF2AK2 (PKR) (Homo sapiens, UniProt P19525); assay: SelectScreen LanthaScreen Binding; conditions: INX-0315 at 100nM
T7 construct: purchased Thermo Fisher Scientific SelectScreen (plus Nanosyn / Reaction Biology for CDK/cyclin lines)
Method in brief: as §1

ERN1 = molecular target: T8, ERN1 (Homo sapiens, UniProt O75460); assay: SelectScreen LanthaScreen Binding; conditions: INX-0315 at 100nM
T8 construct: purchased Thermo Fisher Scientific SelectScreen (plus Nanosyn / Reaction Biology for CDK/cyclin lines)
T8 sequence (O75460 19-977): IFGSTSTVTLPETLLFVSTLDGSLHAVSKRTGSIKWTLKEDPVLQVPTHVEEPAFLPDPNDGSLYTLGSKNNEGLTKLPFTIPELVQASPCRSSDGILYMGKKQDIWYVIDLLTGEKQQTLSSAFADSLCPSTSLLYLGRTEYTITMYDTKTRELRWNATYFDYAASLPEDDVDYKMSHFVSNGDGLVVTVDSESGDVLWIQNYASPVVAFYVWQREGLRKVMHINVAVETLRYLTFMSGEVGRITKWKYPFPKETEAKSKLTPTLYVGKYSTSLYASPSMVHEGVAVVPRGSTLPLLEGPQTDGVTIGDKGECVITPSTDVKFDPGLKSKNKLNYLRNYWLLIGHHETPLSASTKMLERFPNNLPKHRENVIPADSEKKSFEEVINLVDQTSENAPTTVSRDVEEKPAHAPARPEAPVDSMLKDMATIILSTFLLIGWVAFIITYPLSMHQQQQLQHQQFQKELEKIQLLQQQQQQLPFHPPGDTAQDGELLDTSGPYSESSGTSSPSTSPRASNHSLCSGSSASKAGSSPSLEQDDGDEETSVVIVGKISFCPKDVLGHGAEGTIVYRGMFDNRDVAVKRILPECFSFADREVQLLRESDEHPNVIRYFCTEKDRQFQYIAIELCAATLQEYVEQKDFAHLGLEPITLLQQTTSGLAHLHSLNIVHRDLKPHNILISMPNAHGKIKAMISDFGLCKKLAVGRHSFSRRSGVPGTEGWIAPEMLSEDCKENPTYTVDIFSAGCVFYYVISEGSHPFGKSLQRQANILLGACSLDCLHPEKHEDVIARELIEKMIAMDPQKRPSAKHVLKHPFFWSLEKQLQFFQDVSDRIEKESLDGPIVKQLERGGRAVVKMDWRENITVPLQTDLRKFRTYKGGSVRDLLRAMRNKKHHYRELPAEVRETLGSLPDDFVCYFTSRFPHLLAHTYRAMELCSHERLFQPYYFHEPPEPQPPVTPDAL
Method in brief: as §1

GRK1 = molecular target: T9, GRK1 (Homo sapiens, UniProt Q15835); assay: SelectScreen LanthaScreen Binding; conditions: INX-0315 at 100nM
T9 construct: purchased Thermo Fisher Scientific SelectScreen (plus Nanosyn / Reaction Biology for CDK/cyclin lines)
Method in brief: as §1

KIT V654A = molecular target: T10, KIT V654A (Homo sapiens, UniProt P10721, V654A); assay: SelectScreen LanthaScreen Binding; conditions: INX-0315 at 100nM
T10 construct: purchased Thermo Fisher Scientific SelectScreen (plus Nanosyn / Reaction Biology for CDK/cyclin lines)
Method in brief: as §1

LIMK2 = molecular target: T11, LIMK2 (Homo sapiens, UniProt P53671); assay: SelectScreen LanthaScreen Binding; conditions: INX-0315 at 100nM
T11 construct: purchased Thermo Fisher Scientific SelectScreen (plus Nanosyn / Reaction Biology for CDK/cyclin lines)
Method in brief: as §1

MAP2K4 (MEK4) = molecular target: T12, MAP2K4 (MEK4) (Homo sapiens, UniProt P45985); assay: SelectScreen LanthaScreen Binding; conditions: INX-0315 at 100nM
T12 construct: purchased Thermo Fisher Scientific SelectScreen (plus Nanosyn / Reaction Biology for CDK/cyclin lines)
T12 sequence (P45985 whole entry): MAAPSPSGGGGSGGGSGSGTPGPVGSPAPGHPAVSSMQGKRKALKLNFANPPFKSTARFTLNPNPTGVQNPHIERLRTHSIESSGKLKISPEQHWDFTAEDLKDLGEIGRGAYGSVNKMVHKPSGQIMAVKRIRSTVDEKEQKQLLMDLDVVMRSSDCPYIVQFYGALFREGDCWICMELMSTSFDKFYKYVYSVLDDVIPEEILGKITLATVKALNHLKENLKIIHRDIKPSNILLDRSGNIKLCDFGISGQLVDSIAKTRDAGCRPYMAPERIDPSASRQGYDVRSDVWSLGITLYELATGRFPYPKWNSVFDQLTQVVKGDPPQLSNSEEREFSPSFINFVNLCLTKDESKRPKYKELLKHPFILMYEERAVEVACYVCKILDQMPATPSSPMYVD
Method in brief: as §1

MAP3K14 (NIK) = molecular target: T13, MAP3K14 (NIK) (Homo sapiens, UniProt Q99558); assay: SelectScreen LanthaScreen Binding; conditions: INX-0315 at 100nM
T13 construct: purchased Thermo Fisher Scientific SelectScreen (plus Nanosyn / Reaction Biology for CDK/cyclin lines)
Method in brief: as §1

MAP3K3 (MEKK3) = molecular target: T14, MAP3K3 (MEKK3) (Homo sapiens, UniProt Q99759); assay: SelectScreen LanthaScreen Binding; conditions: INX-0315 at 100nM
T14 construct: purchased Thermo Fisher Scientific SelectScreen (plus Nanosyn / Reaction Biology for CDK/cyclin lines)
Method in brief: as §1

MAP4K1 (HPK1) = molecular target: T15, MAP4K1 (HPK1) (Homo sapiens, UniProt Q92918); assay: SelectScreen LanthaScreen Binding; conditions: INX-0315 at 100nM
T15 construct: purchased Thermo Fisher Scientific SelectScreen (plus Nanosyn / Reaction Biology for CDK/cyclin lines)
Method in brief: as §1

MAPK10 (JNK3) = molecular target: T16, MAPK10 (JNK3) (Homo sapiens, UniProt P53779); assay: SelectScreen LanthaScreen Binding; conditions: INX-0315 at 100nM
T16 construct: purchased Thermo Fisher Scientific SelectScreen (plus Nanosyn / Reaction Biology for CDK/cyclin lines)
Method in brief: as §1

MERTK (cMER) A708S = molecular target: T17, MERTK (cMER) A708S (Homo sapiens, UniProt Q12866, A708S); assay: SelectScreen LanthaScreen Binding; conditions: INX-0315 at 100nM
T17 construct: purchased Thermo Fisher Scientific SelectScreen (plus Nanosyn / Reaction Biology for CDK/cyclin lines)
Method in brief: as §1

RAF1 (cRAF) Y340D Y341D = molecular target: T18, RAF1 (cRAF) Y340D Y341D (Homo sapiens, UniProt P04049, Y340D/Y341D); assay: SelectScreen LanthaScreen Binding; conditions: INX-0315 at 100nM
T18 construct: purchased Thermo Fisher Scientific SelectScreen (plus Nanosyn / Reaction Biology for CDK/cyclin lines)
T18 sequence (P04049 whole entry Y340D/Y341D): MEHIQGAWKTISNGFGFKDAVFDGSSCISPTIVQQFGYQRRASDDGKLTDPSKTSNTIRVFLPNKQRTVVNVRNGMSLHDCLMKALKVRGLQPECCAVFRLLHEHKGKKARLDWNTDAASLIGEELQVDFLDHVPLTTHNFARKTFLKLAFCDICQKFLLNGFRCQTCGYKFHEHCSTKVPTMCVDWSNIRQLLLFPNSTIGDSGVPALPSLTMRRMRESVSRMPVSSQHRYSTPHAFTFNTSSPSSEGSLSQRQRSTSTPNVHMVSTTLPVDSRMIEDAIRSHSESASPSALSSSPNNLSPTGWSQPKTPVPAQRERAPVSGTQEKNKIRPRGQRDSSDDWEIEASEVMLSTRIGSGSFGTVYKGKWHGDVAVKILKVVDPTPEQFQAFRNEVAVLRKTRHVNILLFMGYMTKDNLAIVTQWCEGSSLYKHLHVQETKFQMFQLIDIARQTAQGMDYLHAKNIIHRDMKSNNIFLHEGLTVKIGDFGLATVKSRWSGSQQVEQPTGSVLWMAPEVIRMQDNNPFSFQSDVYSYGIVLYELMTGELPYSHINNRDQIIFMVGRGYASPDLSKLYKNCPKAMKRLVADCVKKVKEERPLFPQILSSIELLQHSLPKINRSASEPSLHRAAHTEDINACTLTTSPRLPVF
Method in brief: as §1

RET M918T = molecular target: T19, RET M918T (Homo sapiens, UniProt P07949, M918T); assay: SelectScreen LanthaScreen Binding; conditions: INX-0315 at 100nM
T19 construct: purchased Thermo Fisher Scientific SelectScreen (plus Nanosyn / Reaction Biology for CDK/cyclin lines)
Method in brief: as §1

SIK1 = molecular target: T20, SIK1 (Homo sapiens, UniProt P57059); assay: SelectScreen LanthaScreen Binding; conditions: INX-0315 at 100nM
T20 construct: purchased Thermo Fisher Scientific SelectScreen (plus Nanosyn / Reaction Biology for CDK/cyclin lines)
T20 sequence (P57059 whole entry): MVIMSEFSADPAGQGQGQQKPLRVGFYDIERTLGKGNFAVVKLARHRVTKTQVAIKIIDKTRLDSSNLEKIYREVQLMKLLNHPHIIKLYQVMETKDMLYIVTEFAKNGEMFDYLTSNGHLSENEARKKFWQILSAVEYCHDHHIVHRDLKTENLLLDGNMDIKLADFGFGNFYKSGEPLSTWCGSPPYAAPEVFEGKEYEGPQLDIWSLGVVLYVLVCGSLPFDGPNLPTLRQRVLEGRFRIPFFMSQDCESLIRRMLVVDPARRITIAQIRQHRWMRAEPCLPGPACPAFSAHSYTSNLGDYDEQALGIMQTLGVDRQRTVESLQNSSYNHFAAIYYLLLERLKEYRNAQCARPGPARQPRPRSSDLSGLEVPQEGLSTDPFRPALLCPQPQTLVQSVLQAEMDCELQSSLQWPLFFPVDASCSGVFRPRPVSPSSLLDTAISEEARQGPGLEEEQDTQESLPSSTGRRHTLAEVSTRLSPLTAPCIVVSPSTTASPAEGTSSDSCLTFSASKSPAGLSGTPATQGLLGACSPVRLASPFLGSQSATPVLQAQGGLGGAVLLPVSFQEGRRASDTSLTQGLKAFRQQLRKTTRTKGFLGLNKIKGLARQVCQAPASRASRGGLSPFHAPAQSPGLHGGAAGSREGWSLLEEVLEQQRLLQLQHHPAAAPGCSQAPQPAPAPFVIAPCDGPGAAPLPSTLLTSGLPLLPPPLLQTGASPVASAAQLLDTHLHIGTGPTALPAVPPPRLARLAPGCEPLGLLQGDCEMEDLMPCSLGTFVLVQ
Method in brief: as §1

STK38 (NDR) = molecular target: T21, STK38 (NDR) (Homo sapiens, UniProt Q15208); assay: SelectScreen LanthaScreen Binding; conditions: INX-0315 at 100nM
T21 construct: purchased Thermo Fisher Scientific SelectScreen (plus Nanosyn / Reaction Biology for CDK/cyclin lines)
Method in brief: as §1

TAOK3 (JIK) = molecular target: T22, TAOK3 (JIK) (Homo sapiens, UniProt Q9H2K8); assay: SelectScreen LanthaScreen Binding; conditions: INX-0315 at 100nM
T22 construct: purchased Thermo Fisher Scientific SelectScreen (plus Nanosyn / Reaction Biology for CDK/cyclin lines)
Method in brief: as §1

TESK2 = molecular target: T23, TESK2 (Homo sapiens, UniProt Q96S53); assay: SelectScreen LanthaScreen Binding; conditions: INX-0315 at 100nM
T23 construct: purchased Thermo Fisher Scientific SelectScreen (plus Nanosyn / Reaction Biology for CDK/cyclin lines)
Method in brief: as §1

ULK1 = molecular target: T24, ULK1 (Homo sapiens, UniProt O75385); assay: SelectScreen LanthaScreen Binding; conditions: INX-0315 at 100nM
T24 construct: purchased Thermo Fisher Scientific SelectScreen (plus Nanosyn / Reaction Biology for CDK/cyclin lines)
Method in brief: as §1

ULK2 = molecular target: T25, ULK2 (Homo sapiens, UniProt Q8IYT8); assay: SelectScreen LanthaScreen Binding; conditions: INX-0315 at 100nM
T25 construct: purchased Thermo Fisher Scientific SelectScreen (plus Nanosyn / Reaction Biology for CDK/cyclin lines)
Method in brief: as §1

VRK2 = molecular target: T26, VRK2 (Homo sapiens, UniProt Q86Y07); assay: SelectScreen LanthaScreen Binding; conditions: INX-0315 at 100nM
T26 construct: purchased Thermo Fisher Scientific SelectScreen (plus Nanosyn / Reaction Biology for CDK/cyclin lines)
Method in brief: as §1

WEE1 = molecular target: T27, WEE1 (Homo sapiens, UniProt P30291); assay: SelectScreen LanthaScreen Binding; conditions: INX-0315 at 100nM
T27 construct: purchased Thermo Fisher Scientific SelectScreen (plus Nanosyn / Reaction Biology for CDK/cyclin lines)
Method in brief: as §1

MKN1 = assay: CellTiter Glo viability assay; format: cell-based; conditions: Homo sapiens, MKN-1, 144 h; MKN1 gastric carcinoma, 6 days
Experimental: (§2) An exception to this is MCF7PDRCl5-1 cells which were first cultured for 5 days without palbociclib then plated as described. MCF7PDRCl5-1 cells were treated with either a dose curve of the indicated CDK4/6i or a dose curve of INX-315 + 1 µmol/L of the indicated CDK4/6i. Cell viability was determined using the CellTiter-Glo assay (Promega, G9241) following manufacturer's instructions. Plates were processed on either BioTek Synergy2 multi-mode (Agilent) or ClarioSTAR (BMG Labtech) plate readers. T47D and MCF7 cells were seeded into […] plates using BioTek 406 (Aglient) and treated with a ten-point dose concentration from 10 µmol/L to 0.3 nmol/L of INX-315 for 2× doubling times. Plates were fixed with 4% PFA and stained with Rhodamine-Phalloidin (Bio-Trend, 00027) and DAPI (5 mg/mL, Invitrogen, catalog no. D1306). Plates were imaged using CellInsight CX7 LZR and DAPI-positive cells were counted using Thermo Fisher Scientific HCS Studio Cell Analysis Software.

[2] = test system: all CCNE1-amplified lines; assay: CellTiter Glo viability assay; format: cell-based; conditions: 144 h
Experimental: as §2

[3] = test system: palbociclib-resistant MCF7 cells; assay: CellTiter Glo viability assay; format: cell-based; conditions: Homo sapiens
Experimental: as §2

NS(=O)(=O)c1ccc(Nc2ncc3cc4n(c3n2)C2(CCCCC2)C(=O)NN4)cc1 [INX-315]
inhibition at 0.1 µM (AMPK (A1/B2/G1)): 36% | inhibition at 0.1 µM (CDK11 (Inactive)): 2% | inhibition at 0.1 µM (DDR1): 3% | inhibition at 0.1 µM (DDR2 N456S): 14% | inhibition at 0.1 µM (DMPK): 6% | inhibition at 0.1 µM [1]: 12% | inhibition at 0.1 µM (EIF2AK2 (PKR)): -8% | inhibition at 0.1 µM (ERN1): 11% | inhibition at 0.1 µM (GRK1): 27% | inhibition at 0.1 µM (KIT V654A): 26% | inhibition at 0.1 µM (LIMK2): 22% | inhibition at 0.1 µM (MAP2K4 (MEK4)): 17% | inhibition at 0.1 µM (MAP3K14 (NIK)): -2% | inhibition at 0.1 µM (MAP3K3 (MEKK3)): 18% | inhibition at 0.1 µM (MAP4K1 (HPK1)): 17% | inhibition at 0.1 µM (MAPK10 (JNK3)): 12% | inhibition at 0.1 µM (MERTK (cMER) A708S): 14% | inhibition at 0.1 µM (RAF1 (cRAF) Y340D Y341D): -2% | inhibition at 0.1 µM (RET M918T): 42% | inhibition at 0.1 µM (SIK1): 4% | inhibition at 0.1 µM (STK38 (NDR)): 0% | inhibition at 0.1 µM (TAOK3 (JIK)): 4% | inhibition at 0.1 µM (TESK2): -1% | inhibition at 0.1 µM (ULK1): 1% | inhibition at 0.1 µM (ULK2): 3% | inhibition at 0.1 µM (VRK2): 2% | inhibition at 0.1 µM (WEE1): 4% | pIC50 (MKN1): 7.36 | pIC50 [2]: 7.44 | pIC50 ([3]; MCF7, Supp Fig S9D, DMSO + INX-315, read-out: INX-315 IC50): 6.04 | pIC50 ([3]; MCF7, cultured out of CDK4/6i, read-out: IC50 to INX-315): > 6.05 | pIC50 ([3]; MCF7, with abemaciclib (1 µmol/L), read-out: IC50 to INX-315): 7.55 | pIC50 ([3]; MCF7, with lerociclib (1 µmol/L), read-out: IC50 to INX-315): 7.64 | pIC50 ([3]; MCF7, with palbociclib (1 µmol/L), read-out: IC50 to INX-315): 7.85
